Test system: phenyl-p-benzoquinone induced writhing in mice
Test: Mouse antiphenylquinone (phenyl-p-benzoquinone induced) writhing test, oral
Settings: for % mice blocked: 40 min
Method: Male CF1 mice obtained from Charles River Breeding Laboratories, fasted for 16-22 hours and weighing 18-22 g at the time of testing are used throughout. All mice are dosed sequentially by the oral route with solutions of indomethacin and/or of nalbuphine hydrochloride. A dosing volume of 10 ml/kg is used for each sequential solution. […] All doses are coded and the test is performed under a code not known to the observer.
A stock solution of indomethacin is prepared by dissolving dry indomethacin powder with an aqueous vehicle containing 2% by volume of Tween 80®, a pharmacological dispersant manufactured by Fisher Scientific Company and containing 100% polysorbate 80. All dosing solutions are prepared by dilution of the stock solution with the 2% Tween 80® vehicle; the vehicle control is 2% Tween 80®. All solutions are prepared fresh daily.
Stock solutions of nalbuphine HCl are prepared by dissolving dry nalbuphine hydrochloride powder with distilled water. All dosing solutions are prepared by dilution of the stock solution with distilled water; the vehicle control is distilled water.
As indicated above, the standard procedure based upon the prevention of phenyl-p-benzoquinone induced writhing in mice is utilized to detect and quantify the analgetic activity of compositions containing nalbuphine and indomethacin.
Mice, intubated with various doses of nalbuphine hydrochloride, indomethacin, combined doses of nalbuphine hydrochloride and indomethacin,or vehicle, are injected intraperitoneally with a standard challenge dose of phenyl-p-benzoquinone 5 minutes prior to the designated observation period. […] For scoring purposes a "writhe" is indicated by whole body stretching or contraction of the abdomen; mice are observed 10 minutes for the presence or absence of writhing beginning 5 minutes after receiving the phenyl-p-benzoquinone dose. Each mouse is used only once, then discarded. […] This dosage as described herein is referred to as the ED50.
In order to study the interaction between nalbuphine and indomethacin, 5 precise dosage ratios of nalbuphine hydrochloride and indomethacin were selected. Four or five coded doses of each selected combination were studied for analgesic effectiveness at 40 minutes using an experimental design which permits coding and complete randomization of the separate dosage forms tested. Altogether 35 separate dosage forms are used and each form is represented in each experimental session. The experiments are continued by running experimental sessions with an equal number of mice per group being tested until the total number, N, of mice tested per group is 60.

Row | SMILES | % mice blocked (indomethacin 0.398 mg/kg, nalbuphine HCl 0) [%] | % mice blocked (indomethacin 0.795 mg/kg, nalbuphine HCl 0) [%] | % mice blocked (indomethacin 1.59 mg/kg, nalbuphine HCl 0) [%] | % mice blocked (indomethacin 3.18 mg/kg, nalbuphine HCl 0) [%] | ED50 at 40 min, Indomethacin (amount of indomethacin in the ED50 dose) (mouse, N=60 mice/dose, indomethacin alone or as component of the fixed-ratio combination) [mg/kg] | % mice blocked (nalbuphine HCl 5.45 mg/kg, indomethacin 0) [%] | % mice blocked (nalbuphine HCl 10.9 mg/kg, indomethacin 0) [%] | % mice blocked (nalbuphine HCl 21.8 mg/kg, indomethacin 0) [%] | % mice blocked (nalbuphine HCl 43.6 mg/kg, indomethacin 0) [%] | % mice blocked (nalbuphine HCl 87.2 mg/kg, indomethacin 0) [%] | ED50 at 40 min, Nalbuphine HCl (amount of nalbuphine HCl in the ED50 dose) (mouse, N=60 mice/dose, nalbuphine HCl alone or as component of the fixed-ratio combination) [mg/kg]
1 | COc1ccc2c(c1)c(CC(=O)O)c(C)n2C(=O)c1ccc(Cl)cc1 [Indomethacin, 1-(p-chlorobenzoyl)-5-methoxy-2-methylindole-3-acetic acid] | 18.3 | 30.0 | 78.3 | 85.0 | 1.08 |  |  |  |  |  | 
2 | Oc1ccc2c3c1O[C@H]1[C@@H](O)CC[C@@]4(O)[C@@H](C2)N(CC2CCC2)CC[C@]314 [Nalbuphine, (-)-17-(cyclobutylmethyl)-4,5α-epoxymorphinan-3,6α,14-triol] |  |  |  |  |  | 10.0 | 13.3 | 46.7 | 66.7 | 66.7 | 35.5

— patent US4407804A, “Analgesic mixture of nalbuphine and indomethacin” (E. I. Du Pont de Nemours and Company, priority 1982, dated 1983)
